The record followed here is PubChem BioAssay AID488844 (Broad Institute, 2010).

Test [1] can be described thus: protection of INS-1E cells from cytokine death, dose response, ATP luminescence, dry powder (AID 488844). The following applies: INS-1E cytokine-induced death rescue, ATP luminescence, 48 h.
In test [2] the test system is INS-1E cytokine-induced death rescue, ATP luminescence, 48 h. The description is as above.

Values joined by “and” are separate entries in the source; they are usually repeats but may differ in a detail not shown here. Equal values may be shown once. Active and inactive are the calls of the source.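 The calls were made as follows: active = compounds raising protection with a fitted AC50 no more than tenfold their highest valid tested dose; inconclusive = flat curve with partial protection, or unreliable curve fit; inactive = the rest.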

Regarding `C[C@@H]1CN([C@@H](C)CO)C(=O)c2cccc(NC(=O)Nc3cccc4ccccc34)c2O[C@H]1CN(C)S(=O)(=O)c1ccccc1`, the protection from cytokine death in test [1] (at 26 µM (top of the series)) is 16.5% (inactive). Consider `COc1ccc(S(=O)(=O)N(C)C[C@@H]2Oc3c(NS(=O)(=O)c4cn(C)cn4)cccc3C(=O)N([C@@H](C)CO)C[C@H]2C)cc1`, for which the protection from cytokine death in test [1] (at 26 µM (top of the series)) is -12.2% (inactive). As to `C[C@@H]1CN([C@@H](C)CO)C(=O)c2cccc(NC(=O)Nc3cccc4ccccc34)c2O[C@H]1CN(C)C(=O)Nc1ccc2c(c1)OCO2`, the protection from cytokine death in test [1] (at 26 µM (top of the series)) was -28.7% (inactive). Still for that read-out and setting: under `CNC[C@@H]1Oc2c(NC(=O)Nc3cccc4ccccc34)cccc2C(=O)N([C@@H](C)CO)C[C@H]1C` stands -5.76% (inactive); under `COc1ccc(S(=O)(=O)N(C)C[C@@H]2Oc3c(NC(=O)c4ccncc4)cccc3C(=O)N([C@@H](C)CO)C[C@H]2C)cc1`, 0.628% (inactive). As for `COc1ccc(S(=O)(=O)N(C)C[C@@H]2Oc3c(cccc3N(C)C)C(=O)N([C@@H](C)CO)C[C@H]2C)cc1`, in test [1] (at 23.5 µM (top of the series)), the protection from cytokine death is -5.24% (inactive). Regarding `C[C@@H]1CN([C@@H](C)CO)C(=O)c2cccc(NC(=O)Nc3cccc4ccccc34)c2O[C@H]1CN(C)S(=O)(=O)c1ccc2c(c1)OCCCO2`, the protection from cytokine death in test [1] (at 26 µM (top of the series)) was 25.8% (inactive). Same read-out and setting: for `COc1ccc(S(=O)(=O)N(C)C[C@@H]2Oc3c(NC(=O)c4cnccn4)cccc3C(=O)N([C@@H](C)CO)C[C@H]2C)cc1` the value was 6.69% (inactive). Take `Cc1ccc(S(=O)(=O)N(C)C[C@@H]2Oc3c(NC(=O)Nc4cccc5ccccc45)cccc3C(=O)N([C@H](C)CO)C[C@H]2C)cc1`: in test [2], the AC50 was > 23.5 µM (inactive).

`COc1ccc(S(=O)(=O)N(C)C[C@@H]2Oc3c(NS(=O)(=O)c4ccccc4)cccc3C(=O)N([C@@H](C)CO)C[C@H]2C)cc1`: the protection from cytokine death in test [1] (at 26 µM (top of the series)) was 4.09% (inactive). The same measure, in the same setting: under `C[C@@H]1CN([C@@H](C)CO)C(=O)c2cccc(NC(=O)Nc3cccc4ccccc34)c2O[C@H]1CN(C)S(=O)(=O)c1cccc(F)c1` stands -13.6% (inactive).

In the case of `COc1ccc(S(=O)(=O)N(C)C[C@@H]2Oc3c(NC(=O)C4CC4)cccc3C(=O)N([C@@H](C)CO)C[C@H]2C)cc1`, in test [1] (at 23.5 µM (top of the series)), the protection from cytokine death is 1.51% (inactive).

Take `COc1ccc(NC(=O)Nc2cccc3c2O[C@@H](CN(C)S(=O)(=O)c2ccc(OC)cc2)[C@H](C)CN([C@@H](C)CO)C3=O)cc1`: the protection from cytokine death in test [1] (at 26 µM (top of the series)) is 13.4% (inactive). Consider `C[C@@H]1CN([C@@H](C)CO)C(=O)c2cccc(NC(=O)Nc3cccc4ccccc34)c2O[C@H]1CN(C)C(=O)Nc1ccccc1`, for which, in test [1] (at 23.5 µM (top of the series)), the protection from cytokine death was -1.63% (inactive). For `C[C@@H]1CN([C@@H](C)CO)C(=O)c2cccc(NC(=O)Nc3cccc4ccccc34)c2O[C@H]1CN(C)CC1CC1`, in test [1] (at 26 µM (top of the series)), the protection from cytokine death was -29.1% (inactive). Still for that read-out and setting: for `C[C@@H]1CN([C@@H](C)CO)C(=O)c2cccc(NC(=O)Nc3cccc4ccccc34)c2O[C@H]1CN(C)S(C)(=O)=O` the value was -4.98% (inactive); for `C[C@@H]1CN([C@@H](C)CO)C(=O)c2cccc(NC(=O)Nc3cccc4ccccc34)c2O[C@H]1CN(C)C(=O)NC1CCCCC1`, -35.9% (inactive). Take `C[C@@H]1CN([C@@H](C)CO)C(=O)c2cccc(NC(=O)Nc3cccc4ccccc34)c2O[C@H]1CN(C)S(=O)(=O)c1ccccc1F`: the protection from cytokine death in test [1] (at 26 µM (top of the series)) was -7.82% (inactive). The same measure, in the same setting: under `C[C@@H]1CN([C@@H](C)CO)C(=O)c2cccc(NC(=O)Nc3cccc4ccccc34)c2O[C@H]1CN(C)S(=O)(=O)c1cn(C)cn1` stands -7.7% (inactive). The same measure, in the same setting: for `COc1ccc(NC(=O)N(C)C[C@@H]2Oc3c(NC(=O)Nc4cccc5ccccc45)cccc3C(=O)N([C@@H](C)CO)C[C@H]2C)cc1` the value was -28.7% (inactive); for `COc1ccc(S(=O)(=O)N(C)C[C@@H]2Oc3c(NC(=O)Nc4cccc5ccccc45)cccc3C(=O)N([C@H](C)CO)C[C@@H]2C)cc1`, 13.8% (inactive); for `C[C@@H]1CN([C@@H](C)CO)C(=O)c2cccc(NC(=O)Nc3cccc4ccccc34)c2O[C@H]1CN(C)S(=O)(=O)c1ccc2c(c1)oc(=O)n2C`, 4.91% (inactive). For the molecule `COc1ccc(S(=O)(=O)N(C)C[C@@H]2Oc3c(NC(=O)c4ccc(-c5nccs5)cc4)cccc3C(=O)N([C@@H](C)CO)C[C@H]2C)cc1`, the protection from cytokine death in test [1] (at 26 µM (top of the series)) is 12.6% (inactive). The same measure, in the same setting: under `C[C@@H]1CN([C@@H](C)CO)C(=O)c2cccc(NC(=O)Nc3cccc4ccccc34)c2O[C@H]1CN(C)S(=O)(=O)c1ccc2c(n1)N(C)CCO2` stands 22.7% (inactive); under `COc1ccc(S(=O)(=O)N(C)C[C@@H]2Oc3c(NC(=O)C4CCCCC4)cccc3C(=O)N([C@@H](C)CO)C[C@H]2C)cc1`, -8.99% (inactive); under `C[C@H]1CN([C@@H](C)CO)C(=O)c2cccc(NC(=O)NC3CCCCC3)c2O[C@@H]1CN(C)S(C)(=O)=O`, -7.31% (inactive).

With `C[C@@H]1CN([C@@H](C)CO)C(=O)c2cccc(NS(=O)(=O)c3ccccc3)c2O[C@H]1CN(C)Cc1ccc(C(F)(F)F)cc1`, the protection from cytokine death in test [1] (at 26 µM (top of the series)) was -9.86% (inactive). Same read-out and setting: under `C[C@@H]1CN([C@@H](C)CO)C(=O)c2cccc(NC(=O)Nc3cccc4ccccc34)c2O[C@H]1CN(C)S(=O)(=O)c1ccc(OC(F)(F)F)cc1` stands -128% (inactive); under `Cc1ccc(S(=O)(=O)N(C)C[C@H]2Oc3c(NC(=O)Nc4cccc5ccccc45)cccc3C(=O)N([C@@H](C)CO)C[C@@H]2C)cc1`, -9.39% (inactive). Same read-out and setting: for `C[C@@H]1CN([C@@H](C)CO)C(=O)c2cccc(NC(=O)Nc3cccc4ccccc34)c2O[C@H]1CN(C)S(=O)(=O)c1cccs1` the value was -2.28% (inactive); for `C[C@@H]1CN([C@@H](C)CO)C(=O)c2cccc(NC(=O)Nc3cccc4ccccc34)c2O[C@H]1CN(C)C(=O)Nc1ccc(F)cc1`, -27.4% (inactive). Consider `N#Cc1ccc2cc(Br)c(C(F)(F)P(=O)(O)O)cc2c1`, for which the protection from cytokine death in test [1] (at 26 µM (top of the series)) is -34.9% (inactive). `COc1ccc(S(=O)(=O)N(C)C[C@@H]2Oc3c(NC(=O)C4CCOCC4)cccc3C(=O)N([C@@H](C)CO)C[C@H]2C)cc1`: the protection from cytokine death in test [1] (at 23.5 µM (top of the series)) is 6.47% (inactive). As to `COc1ccc(S(=O)(=O)N(C)C[C@@H]2Oc3c(NC(=O)c4cccc5ccccc45)cccc3C(=O)N([C@@H](C)CO)C[C@H]2C)cc1`, the protection from cytokine death in test [1] (at 26 µM (top of the series)) is 1.13% (inactive). `COc1ccc(S(=O)(=O)N(C)C[C@@H]2Oc3c(NC(=O)NC(C)C)cccc3C(=O)N([C@@H](C)CO)C[C@H]2C)cc1`: the protection from cytokine death in test [1] (at 26 µM (top of the series)) was -1.33% (inactive). Still for that read-out and setting: under `COc1ccc(S(=O)(=O)N(C)C[C@@H]2Oc3c(NC(=O)Nc4ccc(C(F)(F)F)cc4)cccc3C(=O)N([C@@H](C)CO)C[C@H]2C)cc1` stands 7.51% (inactive). Still for that read-out and setting: under `COc1ccc(S(=O)(=O)N(C)C[C@@H]2Oc3c(NC(=O)Nc4ccc5c(c4)OCO5)cccc3C(=O)N([C@@H](C)CO)C[C@H]2C)cc1` stands 9.8% (inactive). As for `COc1ccc(S(=O)(=O)N(C)C[C@@H]2Oc3c(NC(=O)Nc4ccccc4)cccc3C(=O)N([C@@H](C)CO)C[C@H]2C)cc1`, the AC50 in test [2] was > 26 µM (inactive). Regarding `C[C@@H]1CN([C@@H](C)CO)C(=O)c2cccc(NC(=O)Nc3cccc4ccccc34)c2O[C@H]1CN(C)C(=O)Nc1ccc(C(F)(F)F)cc1`, the protection from cytokine death in test [1] (at 23.5 µM (top of the series)) is -33.2% (inactive).

With `COc1ccc(S(=O)(=O)N(C)C[C@@H]2Oc3c(NC(=O)c4nc5ccccc5s4)cccc3C(=O)N([C@@H](C)CO)C[C@H]2C)cc1`, the protection from cytokine death in test [1] (at 26 µM (top of the series)) is -19.4% (inactive). Still for that read-out and setting: for `COc1ccccc1S(=O)(=O)N(C)C[C@@H]1Oc2c(NC(=O)Nc3cccc4ccccc34)cccc2C(=O)N([C@@H](C)CO)C[C@H]1C` the value was -1.88% (inactive).

`COc1ccc(S(=O)(=O)N(C)C[C@@H]2Oc3c(NS(=O)(=O)c4ccc(F)cc4)cccc3C(=O)N([C@@H](C)CO)C[C@H]2C)cc1`: the protection from cytokine death in test [1] (at 26 µM (top of the series)) is 8.48% (inactive). Still for that read-out and setting: under `COc1ccc(S(=O)(=O)N(C)C[C@@H]2Oc3ccc(NC(=O)Nc4cccc5ccccc45)cc3C(=O)N([C@@H](C)CO)C[C@H]2C)cc1` stands -13.2% (inactive). With `COc1ccc(S(=O)(=O)Nc2cccc3c2O[C@@H](CN(C)S(=O)(=O)c2ccc(OC)cc2)[C@H](C)CN([C@@H](C)CO)C3=O)cc1`, in test [1] (at 26 µM (top of the series)), the protection from cytokine death was -0.665% (inactive). On the same count and under the same terms, under `COc1ccc(S(=O)(=O)N(C)C[C@@H]2Oc3c(NC(=O)Nc4c(C)noc4C)cccc3C(=O)N([C@@H](C)CO)C[C@H]2C)cc1` stands -2.07% (inactive); under `Cc1noc(C)c1NC(=O)N(C)C[C@@H]1Oc2c(NC(=O)Nc3cccc4ccccc34)cccc2C(=O)N([C@@H](C)CO)C[C@H]1C`, -14.9% (inactive); under `COc1ccc(S(=O)(=O)N(C)C[C@@H]2Oc3c(NS(C)(=O)=O)cccc3C(=O)N([C@@H](C)CO)C[C@H]2C)cc1`, -4.24% (inactive). For the molecule `C[C@@H]1CN([C@@H](C)CO)C(=O)c2cccc(NC(=O)Nc3cccc4ccccc34)c2O[C@H]1CN(C)S(=O)(=O)c1ccc2c(c1)OCCO2`, the concentration at half-maximal activity (AC50) in test [2] was 1.62 µM and 4.81 µM.

Turning to `COc1ccc(S(=O)(=O)N(C)C[C@@H]2Oc3c(NC(=O)Nc4cccc5ccccc45)cccc3C(=O)N([C@@H](C)CO)C[C@H]2C)cc1OC`, the protection from cytokine death in test [1] (at 26 µM (top of the series)) is 34.5% (inactive). Turning to `COc1ccc(S(=O)(=O)N(C)C[C@@H]2Oc3c(NC(=O)NC4CCCCC4)cccc3C(=O)N([C@@H](C)CO)C[C@H]2C)cc1`, in test [1] (at 26 µM (top of the series)), the protection from cytokine death was 7.69% (inactive).

As a reminder, the AC50 is the concentration giving half of the maximal activity seen.
